Test results published in paper PMC10458458, “Characterization of Anticancer Effects of the Analogs of DJ4, a Novel Selective Inhibitor of ROCK and MRCK Kinases” (Pharmaceuticals, 2023).

What was measured:
Experiment in all cases: NCI-60 screen (SRB)
Type in all cases: cell-based, human
SK-MEL-28 = SK-MEL-28 (Melanoma), 10 µM, 48 h; negative = cell death vs time zero
Text: (§1) The selected active compounds were screened at NCI, as a part of In Vitro Cell Line Screening Project (IVCLSP), for their effect on cell growth in 60 different cancer cell lines. The 60 human cancer cell line panel included leukemia, melanoma, non-small cell lung cancer, colon, central nervous system (CNS), ovarian, renal, prostate, and breast cancer cell lines. The detailed procedure and applications of NCI-60 cell line screening can be found at https://dtp.cancer.gov/discovery_development/nci-60/default.htm (accessed on 9 January 2023). Briefly, cells were plated in 96-well plates and incubated for 24 h. One set of cells was fixed with trichloroacetic acid at time 0 h (Tz), and SRB (sulphorhodamine B) assays were performed to quantify the cells. The remaining set of cells were treated with 10 µM single concentration of each compound and incubated for 48 h (Te) after which the cells were fixed, and the SRB assays were performed. Data are presented as percent growth relative to the control as 100% according to the following calculations:
(§2) When Te >/= Tz. Growth(%)=Te−Tz/C−Tz∗100 and when Te < Tz. (1) Growth(%)=Te−Tz/Tz∗100
(§3) Values between 0–100 indicate cell growth, zero (0) indicates no cell growth, values < 0 indicate cell death.

SF-268 = SF-268 (CNS Cancer), 10 µM, 48 h; negative = cell death vs time zero
Text: as §1, §2, §3

CCRF-CEM = CCRF-CEM (Leukemia), 10 µM, 48 h; negative = cell death vs time zero
Text: as §1, §2, §3

SN12C = SN12C (Renal Cancer), 10 µM, 48 h; negative = cell death vs time zero
Text: as §1, §2, §3

NCI-H23 = NCI-H23 (Non-Small Cell Lung Cancer), 10 µM, 48 h; negative = cell death vs time zero
Text: as §1, §2, §3

HT29 = HT29 (Colon Cancer), 10 µM, 48 h; negative = cell death vs time zero
Text: as §1, §2, §3

HOP-62 = HOP-62 (Non-Small Cell Lung Cancer), 10 µM, 48 h; negative = cell death vs time zero
Text: as §1, §2, §3

BT-549 = BT-549 (Breast Cancer), 10 µM, 48 h; negative = cell death vs time zero
Text: as §1, §2, §3

MDA-MB-231 = MDA-MB-231 (Breast Cancer), 10 µM, 48 h; negative = cell death vs time zero
Text: as §1, §2, §3

CAKI-1 = CAKI-1 (Renal Cancer), 10 µM, 48 h; negative = cell death vs time zero
Text: as §1, §2, §3

MALME-3M = details: 10 µM, 48 h; for percent cell growth: MALME-3M (Melanoma), negative = cell death vs time zero
Text: as §1, §2, §3

RXF 393 = RXF 393 (Renal Cancer), 10 µM, 48 h; negative = cell death vs time zero
Text: as §1, §2, §3

SF-295 = SF-295 (CNS Cancer), 10 µM, 48 h; negative = cell death vs time zero
Text: as §1, §2, §3

TK-10 = TK-10 (Renal Cancer), 10 µM, 48 h; negative = cell death vs time zero
Text: as §1, §2, §3

COLO 205 = COLO 205 (Colon Cancer), 10 µM, 48 h; negative = cell death vs time zero
Text: as §1, §2, §3

SW-620 = SW-620 (Colon Cancer), 10 µM, 48 h; negative = cell death vs time zero
Text: as §1, §2, §3

MCF7 = MCF7 (Breast Cancer), 10 µM, 48 h; negative = cell death vs time zero
Text: as §1, §2, §3

OVCAR-4 = OVCAR-4 (Ovarian Cancer), 10 µM, 48 h; negative = cell death vs time zero
Text: as §1, §2, §3

UO-31 = UO-31 (Renal Cancer), 10 µM, 48 h; negative = cell death vs time zero
Text: as §1, §2, §3

786-0 = 786-0 (Renal Cancer), 10 µM, 48 h; negative = cell death vs time zero
Text: as §1, §2, §3

SR = SR (Leukemia), 10 µM, 48 h; negative = cell death vs time zero
Text: as §1, §2, §3

A498 = A498 (Renal Cancer), 10 µM, 48 h; negative = cell death vs time zero
Text: as §1, §2, §3

SNB-75 = details: 10 µM, 48 h; for percent cell growth: SNB-75 (CNS Cancer), negative = cell death vs time zero
Text: as §1, §2, §3

IGROV1 = IGROV1 (Ovarian Cancer), 10 µM, 48 h; negative = cell death vs time zero
Text: as §1, §2, §3

ACHN = ACHN (Renal Cancer), 10 µM, 48 h; negative = cell death vs time zero
Text: as §1, §2, §3

NCI-H226 = NCI-H226 (Non-Small Cell Lung Cancer), 10 µM, 48 h; negative = cell death vs time zero
Text: as §1, §2, §3

SK-MEL-5 = SK-MEL-5 (Melanoma), 10 µM, 48 h; negative = cell death vs time zero
Text: as §1, §2, §3

Structure (SMILES) | percent cell growth (SK-MEL-28) [%] | percent cell growth (SF-268) [%] | percent cell growth (CCRF-CEM) [%] | percent cell growth (SN12C) [%] | percent cell growth (NCI-H23) [%] | percent cell growth (HT29) [%] | percent cell growth (HOP-62) [%] | percent cell growth (BT-549) [%] | percent cell growth (MDA-MB-231) [%] | percent cell growth (CAKI-1) [%] | percent cell growth (MALME-3M) [%] | percent cell growth (RXF 393) [%] | percent cell growth (SF-295) [%] | percent cell growth (TK-10) [%] | percent cell growth (COLO 205) [%] | percent cell growth (SW-620) [%] | percent cell growth (MCF7) [%] | percent cell growth (OVCAR-4) [%] | percent cell growth (UO-31) [%] | percent cell growth (786-0) [%] | also measured
Cl.O=C1NC(=NCCc2ccccc2)SC1=Cc1c[nH]c2ncccc12 (mixture of isomers) [DJ4-HCl] | 0.8 | 8.9 | 5.5 | 33.5 | 3.0 | 27.8 | −3.0 | 5.3 | 25.9 | 54.8 | 44.8 | −30.1 | 18.7 | 18.8 | −6.8 | 7.8 | 2.0 | 32.3 | 36.6 | 19.7 | percent cell growth (SR): −1.5%; percent cell growth (A498): −21.3%; percent cell growth (SNB-75): −13.3%; percent cell growth (IGROV1): 25.6%; percent cell growth (ACHN): −12.0%; percent cell growth (NCI-H226): 22.4%; percent cell growth (SK-MEL-5): −0.2%
O=C1N/C(=N\CCc2ccccc2)S/C1=C/c1c[nH]c2ncccc12 [DJ4] | 16.0 | 10.4 | 9.9 | 15.9 | 9.1 | 30.6 | 19.9 | −7.9 | 25.5 | 37.4 | 30.6 | −20.2 | 22.6 | 34.2 | 4.8 | 9.9 | 4.0 | 23.8 | 25.2 | 9.0 | percent cell growth (SR): 5.6%; percent cell growth (A498): −7.6%; percent cell growth (SNB-75): −10.9%; percent cell growth (IGROV1): 14.0%; percent cell growth (ACHN): 16.0%; percent cell growth (NCI-H226): 3.3%; percent cell growth (SK-MEL-5): 14.5%
C=CC/N=C1\NC(=O)/C(=C\c2c[nH]c3ncccc23)S1 [DJ-Allyl] | −2.4 | −3.3 | 7.1 | 24.0 | 6.8 | 26.4 | −10.8 | −29.5 | 19.8 | 30.2 | 40.2 | −41.3 | 13.0 | 1.7 | −20.1 | 7.4 | 3.5 | 34.7 | 3.1 | 4.4 | increase in cell number (MALME-3M; MALME-3M (melanoma)): ~ 40%; percent cell growth (SR): −9.5%; percent cell growth (A498): −34.5%; percent cell growth (SNB-75): −67.3%; reduction in cell number (SNB-75; SNB-75 (CNS)): 60%; percent cell growth (IGROV1): 17.0%; percent cell growth (ACHN): −1.2%; percent cell growth (NCI-H226): 10.7%; percent cell growth (SK-MEL-5): 2.0%
CC/N=C1\NC(=O)/C(=C\c2c[nH]c3ncccc23)S1 [DJE4] | −17.2 | −5.8 | 3.0 | 12.6 | −7.9 | 4.3 | −26.5 | −50.4 | 10.7 | 20.6 | −6.2 | −39.3 | 5.0 | −3.8 | −33.3 | 6.5 | 4.0 | 19.5 | 7.5 | 3.0 | percent cell growth (SR): 0.4%; percent cell growth (A498): −54.2%; percent cell growth (SNB-75): −71.8%; percent cell growth (IGROV1): 21.7%; percent cell growth (ACHN): 0.7%; percent cell growth (NCI-H226): 10.8%; percent cell growth (SK-MEL-5): 9.2%
